Results from patent US20240270741A1 (Cogent Biosciences, Inc., priority 2023, published 2024).

Molecular target: FGFR2 (Homo sapiens, UniProt P21802)
Assay: FGFR wild type enzyme assay (HTRF KinEASE-TK), FGFR2
Conditions: Enz FGFR2 (nM), FGFR2 wild type enzyme assay
Procedure: Activity against FGFR wild type and mutant enzymes were determined in biochemical assays using purified intracellular domains of the respective isoforms using HTRF KinEASE-TK assay technology from CisBio, now PerkinElmer. (Catalogue number 62TK0PEC). Briefly test compounds were tested in 11 point 1:3 serial dilutions, typical final concentration ranges from 10,000 nM to 0.17 nM. Test compounds were dissolved in DMSO and added to assay plates using acoustic transfer. Enzyme was pre-incubated with test compound for 30 minutes and the assay was initiated by addition of ATP and TK-peptide substrate. After 60 minutes at room temperature the reaction was quenched with detection reagent and incubated for an additional 60 minutes at room temperature. The plates were read using a multimode reader and the emission ratio of 665 nm to 615 nm was determined. This ratio was converted to percent of control (POC). [1-(high control-sample signal)/(high control-low control)]*100. Wells without compound were used to determine high control values and wells without enzyme were used to determine low control values. The POC values were fit using a four-parameter logistic model and the value where the fit curve was equal to 50 POC was reported as the IC50 using the Signals Vitro Vivo software package (PerkinElmer). Final assay conditions were: 50 mM HEPES pH7.5, 10 mM MgCl2, 1 mM EDTA, 0.01% Brij-35, 2 mM MnCl2, 1 mM DTT, and 0.5 uM TK-peptide.

Chain of FGFR2 (P21802 399-821 limits assumed): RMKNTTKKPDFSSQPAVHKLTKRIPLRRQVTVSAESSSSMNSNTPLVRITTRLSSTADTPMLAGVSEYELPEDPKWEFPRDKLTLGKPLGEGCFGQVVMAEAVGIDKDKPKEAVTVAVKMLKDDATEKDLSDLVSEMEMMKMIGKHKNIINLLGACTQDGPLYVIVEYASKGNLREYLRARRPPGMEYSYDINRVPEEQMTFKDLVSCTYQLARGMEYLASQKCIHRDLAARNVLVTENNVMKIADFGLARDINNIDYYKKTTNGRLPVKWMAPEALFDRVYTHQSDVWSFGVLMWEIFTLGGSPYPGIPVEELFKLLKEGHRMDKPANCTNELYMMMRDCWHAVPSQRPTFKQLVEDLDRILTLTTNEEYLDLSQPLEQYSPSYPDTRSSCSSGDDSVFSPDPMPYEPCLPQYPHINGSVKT

Going from N#Cc1cnn2cc(-c3ccc(N4CCCC4)nc3)cc(Sc3ncccc3F)c12 [Example 554, 4-((3-fluoropyridin-2-yl)thio)-6-(6-(pyrrolidin-1-yl)pyridin-3-yl)pyrazolo[1,5-a]pyridine-3-carbonitrile] to CC(=O)N1CCN(c2ccc(-c3cc(Sc4ncccc4F)c4c(C#N)cnn4c3)cn2)CC1 [Example 555, 6-(6-(4-acetylpiperazin-1-yl)pyridin-3-yl)-4-((3-fluoropyridin-2-yl)thio)pyrazolo[1,5-a]pyridine-3-carbontrile], the IC50 falls from 2 nM to 1 nM (2-fold).

Cc1c(-c2cc(Sc3ccccc3C#N)c3c(C#N)cnn3c2)cnn1C1CCN(C#N)CC1 [Example 556, 4-((2-cyanophenyl)thio)-6-(1-(1-cyanopiperidin-4-yl)-5-methyl-1H-pyrazol-4-yl)pyrazolo[1,5-a]pyridine-3-carbonitrile] and Cc1c(-c2cc(Sc3ccccc3C#N)c3c(C#N)cnn3c2)cnn1C1CCN(C(=O)C(C)(C)O)CC1 [Example 589, 4-((2-cyanophenyl)thio)-6-(1-(1-(2-hydroxy-2-methylpropanoyl)piperidin-4-yl)-5-methyl-1H-pyrazol-4-yl)pyrazolo[1,5-a]pyridine-3-carbonitrile] are the same in IC50: 1 nM for the first, 1 nM for the second.

First: Cc1c(-c2cc(Sc3ncccc3F)c3c(C#N)cnn3c2)cnn1C1CCN(C#N)CC1 [Example 557]
Second: N#Cc1cnn2cc(-c3cn([C@H]4CCCNC4)nc3F)cc(Sc3ncccc3F)c12 [Example 577, (S)-6-(3-fluoro-1-(piperidin-3-yl)-1H-pyrazol-4-yl)-4-((3-fluoropyridin-2-yl)thio)pyrazolo[1,5-a]pyridine-3-carbonitrile]
The IC50 of the first is 3.5-fold lower: 2 nM for the first, 7 nM for the second.

Compared with Cn1cc(-c2cc(Sc3ccc(F)cc3C#N)c3c(C#N)cnn3c2)cn1 [Example 558, 4-((2-cyano-4-fluorophenyl)thio)-6-(1-methyl-1H-pyrazol-4-yl)pyrazolo[1,5-a]pyridine-3-carbonitrile], Cc1cccc(Sc2cc(-c3cnn(C)c3)cn3ncc(C#N)c23)c1C#N [Example 576, 4-((2-cyano-3-methylphenyl)thio)-6-(1-methyl-1H-pyrazol-4-yl)pyrazolo[1,5-a]pyridine-3-carbonitrile] is 3.5-fold higher in IC50: 2 nM for the first, 7 nM for the second. The first is the more potent here.

N#Cc1cc(F)ccc1Sc1cc(-c2ccc(N3CCCC3)nc2)cn2ncc(C#N)c12 [Example 559, 4-((2-cyano-4-fluorophenyl)thio)-6-(6-(pyrrolidin-1-yl)pyridin-3-yl)pyrazolo[1,5-a]pyridine-3-carbonitrile] and CN1CCN(c2ccc(-c3cc(Sc4ccc(F)cc4C#N)c4c(C#N)cnn4c3)cn2)CC1 [Example 560, 4-((2-cyano-4-fluorophenyl)thio)-6-(6-(4-methylpiperazin-1-yl)pyridin-3-yl)pyrazolo[1,5-a]pyridine-3-carbonitrile] are the same in IC50: 1 nM for the first, 1 nM for the second.

Going from Cc1c(-c2cc(Sc3ccc(F)cc3C#N)c3c(C#N)cnn3c2)cnn1C[C@@H](O)CO [Example 561, (R)-4-((2-cyano-4-fluorophenyl)thio)-6-(1-(2,3-dihydroxypropyl)-5-methyl-1H-pyrazol-4-yl)pyrazolo[1,5-a]pyridine-3-carbonitrile] to CO[C@H]1CC[C@H](n2ncc(-c3cc(Sc4ccc(F)cc4C#N)c4c(C#N)cnn4c3)c2C)CC1 [Example 579, 4-((2-cyano-4-fluorophenyl)thio)-6-(1-((1r,4r)-4-methoxycyclohexyl)-5-methyl-1H-pyrazol-4-yl)pyrazolo[1,5-a]pyridine-3-carbonitrile], the IC50 falls from 7 nM to 1.5 nM (4.7-fold).

CC(=O)NC1CCN(c2ccc(-c3cc(Sc4ccccc4C#N)c4c(C#N)cnn4c3)cn2)C1 (stereo not drawn) [Example 562, N-(1-(5-(3-cyano-4-((2-cyanophenyl)thio)pyrazolo [1,5-a]pyridin-6-yl)pyridin-2-yl)pyrrolidin-3-yl)acetamide] and CC(=O)N[C@H]1CC[C@H](n2cc(-c3cc(Sc4ccccc4C#N)c4c(C#N)cnn4c3)cn2)CC1 [Example 574, N-((1r,4r)-4-(4-(3-cyano-4-((2-cyanophenyl)thio)pyrazolo [1,5-a]pyridin-6-yl)-1H-pyrazol-1-yl)cyclohexyl)acetamide] are the same in IC50: 1 nM for the first, 1 nM for the second.

C[C@@H](O)C(=O)N1CCC[C@@H](n2cc(-c3cc(Sc4ccccc4C#N)c4c(C#N)cnn4c3)cn2)C1 [Example 563, 4-((2-cyanophenyl)thio)-6-(1-((R)-1-((R)-2-hydroxypropanoyl)piperidin-3-yl)-1H-pyrazol-4-yl)pyrazolo[1,5-a]pyridine-3-carbonitrile] and CC(=O)N1CC[C@@H](n2cc(-c3cc(Sc4ccccc4C#N)c4c(C#N)cnn4c3)cn2)C1 [Example 582, (R)-6-(1-(1-acetylpyrrolidin-3-yl)-1H-pyrazol-4-yl)-4-((2-cyanophenyl)thio)pyrazolo [1,5-a]pyridine-3-carbonitrile] are the same in IC50: 1 nM for the first, 1 nM for the second.

CO[C@@H](C)C(=O)N1CCC(n2cc(-c3cc(Sc4ccccc4C#N)c4c(C#N)cnn4c3)cn2)CC1 [Example 564, (S)-4-((2-cyanophenyl)thio)-6-(1-(1-(2-methoxypropanoyl)piperidin-4-yl)-1H-pyrazol-4-yl)pyrazolo[1,5-a]pyridine-3-carbonitrile] and CO[C@H](C)C(=O)N1CCC(n2cc(-c3cc(Sc4ccccc4C#N)c4c(C#N)cnn4c3)cn2)CC1 [Example 565, (R)-4-((2-cyanophenyl)thio)-6-(1-(1-(2-methoxypropanoyl)piperidin-4-yl)-1H-pyrazol-4-yl)pyrazolo[1,5-a]pyridine-3-carbonitrile] are the same in IC50: 0.5 nM for the first, 0.5 nM for the second.

Compared with N#Cc1ccccc1Sc1cc(-c2cnn(CCO)c2)cn2ncc(C#N)c12 [Example 566, 4-((2-cyanophenyl)thio)-6-(1-(2-hydroxyethyl)-1H-pyrazol-4-yl)pyrazolo[1,5-a]pyridine-3-carbonitrile], N#Cc1ccccc1Sc1cc(-c2cnn(CCCO)c2)cn2ncc(C#N)c12 [Example 583, 4-((2-cyanophenyl)thio)-6-(1-(3-hydroxypropyl)-1H-pyrazol-4-yl)pyrazolo[1,5-a]pyridine-3-carbonitrile] is 2-fold lower in IC50: 2 nM for the first, 1 nM for the second. The second is the more potent here.

C[C@@H](O)Cn1cc(-c2cc(Sc3ccccc3C#N)c3c(C#N)cnn3c2)cn1 [Example 567, (R)-4-((2-cyanophenyl)thio)-6-(1-(2-hydroxypropyl)-1H-pyrazol-4-yl)pyrazolo[1,5-a]pyridine-3-carbonitrile] and C[C@H](O)Cn1cc(-c2cc(Sc3ccccc3C#N)c3c(C#N)cnn3c2)cn1 [Example 568, (S)-4-((2-cyanophenyl)thio)-6-(1-(2-hydroxypropyl)-1H-pyrazol-4-yl)pyrazolo[1,5-a]pyridine-3-carbonitrile] are the same in IC50: 1 nM for the first, 1 nM for the second.

Compared with N#Cc1ccccc1Sc1cc(-c2cn[nH]c2)cn2ncc(C#N)c12 [Example 569, 4-((2-cyanophenyl)thio)-6-(1H-pyrazol-4-yl)pyrazolo[1,5-a]pyridine-3-carbonitrile], N#Cc1ccccc1Sc1cc(-c2cnn(C(F)F)c2)cn2ncc(C#N)c12 [Example 584, 4-((2-cyanophenyl)thio)-6-(1-(difluoromethyl)-1H-pyrazol-4-yl)pyrazolo[1,5-a]pyridine-3-carbonitrile] is 3-fold higher in IC50: 2 nM for the first, 6 nM for the second. The first is the more potent here.

C[C@H](O)CCn1cc(-c2cc(Sc3ccccc3C#N)c3c(C#N)cnn3c2)cn1 [Example 570] and C[C@@H](O)CCn1cc(-c2cc(Sc3ccccc3C#N)c3c(C#N)cnn3c2)cn1 [Example 571, (R)-4-((2-cyanophenyl)thio)-6-(1-(3-hydroxybutyl)-1H-pyrazol-4-yl)pyrazolo[1,5-a]pyridine-3-carbonitrile] are the same in IC50: 1 nM for the first, 1 nM for the second.

Compared with CCn1cc(-c2cc(Sc3ccccc3C#N)c3c(C#N)cnn3c2)cn1 [Example 572, 4-((2-cyanophenyl)thio)-6-(1-ethyl-1H-pyrazol-4-yl)pyrazolo[1,5-a]pyridine-3-carbonitrile], N#Cc1ccccc1Sc1cc(-c2cnn(CC(=O)O)c2)cn2ncc(C#N)c12 [Example 573, 2-(4-(3-cyano-4-((2-cyanophenyl)thio)pyrazolo [1,5-a]pyridin-6-yl)-1H-pyrazol-1-yl)acetic acid] is 4-fold higher in IC50: 1 nM for the first, 4 nM for the second.

First: CNc1ccc(-c2cc(Sc3ccc(F)cc3C#N)c3c(C#N)cnn3c2)cn1 [Example 575, 4-((2-cyano-4-fluorophenyl)thio)-6-(6-(methylamino)pyridin-3-yl)pyrazolo[1,5-a]pryidine-3-carbonitrile]
Second: Cn1ccc(-c2cc(Sc3ccc(F)cc3C#N)c3c(C#N)cnn3c2)cc1=O [Example 587, 4-((2-cyano-4-fluorophenyl)thio)-6-(1-methyl-2-oxo-1,2-dihydropyridin-4-yl)pyrazolo[1,5-a]pyridine-3-carbonitrile]
The IC50 of the first is 8.6-fold lower: 5 nM for the first, 43 nM for the second. The first is the more potent here.

CC(C)(CO)n1cc(-c2cc(Sc3ccccc3C#N)c3c(C#N)cnn3c2)cn1 [Example 578, 4-((2-cyanophenyl)thio)-6-(1-(1-hydroxy-2-methylpropan-2-yl)-1H-pyrazol-4-yl)pyrazolo[1,5-a]pyridine-3-carbonitrile] and N#Cc1ccccc1Sc1cc(-c2cnn(CC(F)(F)F)c2)cn2ncc(C#N)c12 [Example 588] are the same in IC50: 2 nM for the first, 2 nM for the second.

Going from CN(C)c1ccc(-c2cc(Sc3ccccc3C#N)c3c(C#N)cnn3c2)cn1 [Example 580, 4-((2-cyanophenyl)thio)-6-(6-(dimethylamino)pyridin-3-yl)pyrazolo[1,5-a]pyridine-3-carbonitrile] to N#Cc1ccccc1Sc1cc(-c2cnn([C@@H]3CCNC3)c2)cn2ncc(C#N)c12 [Example 581, (R)-4-((2-cyanophenyl)thio)-6-(1-(pyrrolidin-3-yl)-1H-pyrazol-4-yl)pyrazolo[1,5-a]pyridine-3-carbonitrile], the IC50 falls from 1 nM to 0.5 nM (2-fold).

N#Cc1ccccc1Sc1cc(-c2cnn(C3CCOC3)c2)cn2ncc(C#N)c12 (stereo not drawn) [Example 585, 4-((2-cyanophenyl)thio)-6-(1-(tetrahydrofuran-3-yl)-1H-pyrazol-4-yl)pyrazolo[1,5-a]pryidine-3-carbonitrile] and N#Cc1cc(F)ccc1Sc1cc(-c2ccc(N3CCC(O)CC3)nc2)cn2ncc(C#N)c12 [Example 586, 4-((2-cyano-4-fluorophenyl)thio)-6-(6-(4-hydroxypiperidin-1-yl)pyridin-3-yl)pyrazolo[1,5-a]pyridine-3-carbonitrile] are the same in IC50: 1 nM for the first, 1 nM for the second.
